For orientation: IC50 means the midpoint of a concentration-inhibition curve.

The structures appear in SMILES notation.

Test [1] has as its target T1, human V1a receptor (Homo sapiens, UniProt P37288).
T1 construct: expressed in transfected cells; host or cells: CHO K1 (Chinese hamster ovary), also stably transfected with a modified aequorin
As to the kind of experiment: Cellular in vitro assay for vasopressin receptor activity, V1a receptor cell line (aequorin luminescence). Type of test: cell-based. The settings on record: for IC50: CHO cell line transfected with human V1a receptor, [Arg8]-vasopressin at EC50 concentration, read-out: IC50 hV1a; for ratio IC50 hV2/hV1a: selectivity ratio of the IC50 values hV2/hV1a. An outline of the steps:
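Recombinant CHO K1 cells stably expressing human V1a receptor and aequorin, loaded with coelenterazine, were exposed to test compounds for 10 minutes before [Arg^8]-vasopressin at EC50 concentration. Calcium-triggered luminescence was measured immediately, giving IC50 values.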

In test [2] the target is T2, human V2 receptor (Homo sapiens, UniProt P30518).
T2 construct: expressed in transfected cells; host or cells: CHO K1 (Chinese hamster ovary) expressing firefly luciferase under a CRE-responsive promoter
T2 sequence (P30518 whole entry): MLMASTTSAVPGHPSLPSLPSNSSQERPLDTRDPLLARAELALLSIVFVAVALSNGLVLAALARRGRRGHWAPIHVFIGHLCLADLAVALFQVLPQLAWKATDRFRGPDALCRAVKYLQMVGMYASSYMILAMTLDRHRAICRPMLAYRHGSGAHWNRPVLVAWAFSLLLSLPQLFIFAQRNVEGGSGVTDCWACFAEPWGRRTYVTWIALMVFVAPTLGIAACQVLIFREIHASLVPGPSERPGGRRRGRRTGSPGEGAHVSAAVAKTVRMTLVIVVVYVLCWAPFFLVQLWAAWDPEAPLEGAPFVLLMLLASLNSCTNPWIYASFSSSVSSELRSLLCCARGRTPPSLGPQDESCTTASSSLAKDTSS
Put plainly: Cellular in vitro assay for vasopressin receptor activity, V2 receptor cell line (CRE-luciferase). The test is classed as cell-based. The following applies: CHO cell line transfected with human V2 receptor; [Arg8]-vasopressin at EC50 concentration; read-out: IC50 hV2. A digest of the protocol:
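CHO K1 cells stably expressing human V2 receptor with CRE-driven firefly luciferase, plated the day before. Test compounds at various concentrations added together with [Arg^8]-vasopressin at EC50 concentration, 3 h at 37° C, 5% CO2. Luminescence read after Triton lysis and luciferin addition; IC50 values reported.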

T1 sequence (P37288 whole entry): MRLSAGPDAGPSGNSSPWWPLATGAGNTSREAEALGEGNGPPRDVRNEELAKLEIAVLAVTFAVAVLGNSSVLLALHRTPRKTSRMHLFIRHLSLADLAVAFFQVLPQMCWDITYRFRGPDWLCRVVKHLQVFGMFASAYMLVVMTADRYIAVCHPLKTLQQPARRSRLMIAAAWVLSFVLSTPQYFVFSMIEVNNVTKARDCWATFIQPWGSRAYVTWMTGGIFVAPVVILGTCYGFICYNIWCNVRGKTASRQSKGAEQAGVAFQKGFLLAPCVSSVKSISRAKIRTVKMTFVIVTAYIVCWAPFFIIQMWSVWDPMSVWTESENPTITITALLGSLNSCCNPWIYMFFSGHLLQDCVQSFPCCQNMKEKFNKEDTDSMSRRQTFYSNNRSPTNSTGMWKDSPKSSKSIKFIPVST

Regarding `CC1(C)CN(C(=O)c2nc(Cn3nc(-c4ccc(Cl)cc4)n(C[C@H](O)C(F)(F)F)c3=O)nn2-c2ncccc2C(F)(F)F)CCO1` [Example 56, 5-(4-Chlorophenyl)-2-({5-(2,2-dimethylmorpholine-4-carbonyl)-1-[3-(trifluoromethyl)pyridin-2-yl]-1H-1,2,4-triazol-3-yl}methyl)-4-[(2S)-3,3,3-trifluoro-2-hydroxypropyl]-2,4-dihydro-3H-1,2,4-triazol-3-one], the results for the half-inhibitory concentration (IC50) in test [1] and in test [2] were 1.1 nM and 235 nM, respectively. The “ratio IC50 hV2/hV1a” value in test [1] is reported as 214.6.
The like results for `CC1(O)CCN(C(=O)c2nc(Cn3nc(-c4ccc(Cl)cc4)n(C[C@H](O)C(F)(F)F)c3=O)nn2-c2ncccc2C(F)(F)F)C1` (stereo partly drawn) [Example 57, 5-(4-Chlorophenyl)-2-({5-[(35)-3-hydroxy-3-methylpyrrolidine-1-carbonyl]-1-[3-(trifluoromethyl)pyridin-2-yl]-1H-1,2,4-triazol-3-yl}methyl)-4-[(2S)-3,3,3-trifluoro-2-hydroxypropyl]-2,4-dihydro-3H-1,2,4-triazol-3-one] were, in that order, 2.75 nM, 440 nM and 160.0.
With `O=C(c1nc(Cn2nc(-c3ccc(Cl)cc3)n(C[C@H](O)C(F)(F)F)c2=O)nn1-c1ncccc1C(F)(F)F)N1CC(O)(C(F)(F)F)C1` [Example 58, 5-(4-Chlorophenyl)-2-({5-[3-hydroxy-3-(trifluoromethyl)azetidine-1-carbonyl]-1-[3-(trifluoromethyl)pyridin-2-yl]-1H-1,2,4-triazol-3-yl}methyl)-4-[(2S)-3,3,3-trifluoro-2-hydroxypropyl]-2,4-dihydro-3H-1,2,4-triazol-3-one], the IC50 in test [1] was 1.35 nM; in test [2], 435 nM. Moreover, the “ratio IC50 hV2/hV1a” value in test [1] is given as 322.2.

The values are drawn from patent US11230540B2, “Substituted triazole derivatives and uses thereof” (Bayer Pharma Aktiengesellschaft, priority 2017, dated 2022).
